Key:
MFM-223 [1] = conditions: 72 h
Summary of the method: (§1)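 Breast cancer cell lines in 20 µl suspension were added to 384-well plates already holding compound at 5 concentrations, spaced in 10-fold steps across a compound-specific 10,000-fold range, and incubated for 72 h. CellTox Green fluorescence (485/520 nm) was read first to measure cell death, followed by CellTiter-Glo luminescence for viability after 10 min at room temperature. Each plate was normalised to 0.1 % DMSO and a positive kill control. EC50 values came from dose-response curve fits and were censored at the top concentration.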

MDA-MB-436 = conditions: 72 h
Summary of the method: as §1

BT-474 = conditions: 72 h
Summary of the method: as §1

HCC1937 = conditions: 72 h
Summary of the method: as §1

CAL-85-1 [2] = conditions: 72 h
Summary of the method: as §1

MDA-MB-231 [3] = conditions: 72 h
Summary of the method: as §1

MCF-10A = conditions: 72 h
Summary of the method: as §1

HDQ-P1 = conditions: 72 h
Summary of the method: as §1

CAL-148 = conditions: 72 h
Summary of the method: as §1

MDA-MB-453 = conditions: 72 h
Summary of the method: as §1

SK-BR-3 = conditions: 72 h
Summary of the method: as §1

MFM-223 [4] = assay: normalised response (% of control), CellTiter-Glo; higher = more viable cells (100 = DMSO, 0 = benzethonium chloride kill control); conditions: incubation time: 72 h
Summary of the method: (§2)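 Every value is a normalised signal taken at one concentration of a dilution series. Compound was placed in 384-well plates at 5 concentrations in 10-fold steps over a compound-specific 10,000-fold range, and 20 µl of breast cancer cell suspension was seeded onto it. After 72 h, CellTox Green fluorescence (485/520 nm) was measured first and CellTiter-Glo luminescence second, following 10 min at room temperature. Each plate was scaled to 0.1 % DMSO (100) and a positive kill control (0).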

DU-4475 [5] = assay: as above; conditions: incubation time: 72 h
Summary of the method: as §2

MDA-MB-468 = assay: as above; conditions: incubation time: 72 h
Summary of the method: as §2

CAL-85-1 [6] = assay: as above; conditions: incubation time: 72 h
Summary of the method: as §2

MDA-MB-231 [7] = assay: as above; conditions: incubation time: 72 h
Summary of the method: as §2

BT-549 = conditions: 72 h
Summary of the method: as §1

HCC1599 = conditions: 72 h
Summary of the method: as §1

CAL-51 = conditions: 72 h
Summary of the method: as §1

DU-4475 [8] = conditions: 72 h
Summary of the method: as §1

CAL-120 = conditions: 72 h
Summary of the method: as §1

Hs578T = conditions: 72 h
Summary of the method: as §1

HCC1143 = conditions: 72 h
Summary of the method: as §1

Row | SMILES | EC50, CellTiter-Glo (MFM-223 [1]) [nM] | EC50, CellTiter-Glo (MDA-MB-436) [nM] | EC50, CellTiter-Glo (BT-474) [nM] | EC50, CellTiter-Glo (HCC1937) [nM] | EC50, CellTiter-Glo (CAL-85-1 [2]) [nM] | EC50, CellTiter-Glo (MCF-10A) [nM] | EC50, CellTiter-Glo (CAL-148) [nM] | EC50, CellTiter-Glo (SK-BR-3) [nM] | normalised response (MFM-223 [4]) [%] | normalised response (DU-4475 [5]) [%] | normalised response (MDA-MB-468) [%] | normalised response (CAL-85-1 [6]) [%] | normalised response (MDA-MB-231 [7]) [%] | EC50, CellTiter-Glo (BT-549) [nM] | EC50, CellTiter-Glo (CAL-51) [nM] | EC50, CellTiter-Glo (CAL-120) [nM] | further results
1 | COc1cc2c(NC3CCN(C(C)C)CC3)nc(N3CCC(F)(F)CC3)nc2cc1OCCCN1CCCC1 [UNC0642] | 5790 | 4100 | 7620 | > 10000 | 2990 | 6610 | 5460 | 6170 |  |  |  |  |  |  |  |  | EC50, CellTiter-Glo (MDA-MB-231 [3]): 4720 nM; EC50, CellTiter-Glo (HDQ-P1): 9830 nM; EC50, CellTiter-Glo (MDA-MB-453): 3150 nM
2 | COc1cc2ncnc(Nc3ccc(F)c(Cl)c3)c2cc1OCCCN1CCOCC1 [Gefitinib] (10000 nM) |  |  |  |  |  |  |  |  | 75 | 104 | 38.1 | 34.7 | 70.5 |  |  |  | 
3 | COCC1(CO)C(=O)C2CCN1CC2 (stereo not given) [Prima-1 Met] |  |  |  |  |  |  |  |  |  |  |  |  |  | 2900 |  |  | 
4 | COc1cc(OC2CCN(C)CC2)ccc1Nc1ncc2c(n1)n(C1CCCC1)c(=O)n2C [AZ 3146] |  |  | 2620 |  | 3780 | 9260 |  | 970 |  |  |  |  |  |  | 1010 |  | EC50, CellTiter-Glo (HCC1599): 8240 nM
5 | O=C(/C=C/c1cccc(S(=O)(=O)Nc2ccccc2)c1)NO [Belinostat] (10000 nM) |  |  |  |  |  |  |  |  | 26.1 | 5.73 | 8.88 | 6.45 | 2.16 |  |  |  | 
6 | CCn1c(-c2nonc2N)nc2cnc(Oc3cccc(NC(=O)c4ccc(OCCN5CCOCC5)cc4)c3)cc21 |  | 3670 | 206 |  |  | 37.8 | 1240 | 1880 |  |  |  |  |  | 4290 | 4640 | 512 | EC50, CellTiter-Glo (DU-4475 [8]): > 10000 nM; EC50, CellTiter-Glo (MDA-MB-231 [3]): 1500 nM; EC50, CellTiter-Glo (HDQ-P1): 2170 nM; EC50, CellTiter-Glo (Hs578T): 2050 nM
7 | O=C(Nc1cccnc1)N1CCC(Cc2cccc(Oc3ccc(C(F)(F)F)cn3)c2)CC1 [PF-3845] |  |  |  |  | > 10000 |  |  |  |  |  |  |  |  | 3070 | 4200 | > 10000 | EC50, CellTiter-Glo (HCC1599): 9420 nM
8 | COCC1(CO)C(=O)C2CCN1CC2 (stereo not given) [Prima-1 Met] (10000 nM) |  |  |  |  |  |  |  |  | 103 | 106 | 91.3 | 102 | 97.6 |  |  |  | 
9 | CO[C@H]1C[C@@H]2CC[C@@H](C)[C@@](O)(O2)C(=O)C(=O)N2CCCC[C@H]2C(=O)O[C@H]([C@H](C)C[C@@H]2CC[C@@H](OP(C)(C)=O)[C@H](OC)C2)CC(=O)[C@H](C)/C=C(\C)[C@@H](O)[C@@H](OC)C(=O)[C@H](C)C[C@H](C)/C=C/C=C/C=C/1C [Ridaforolimus] | 0.98 | 1.03 |  | 0.46 | 0.57 |  | 2.27 | 0.78 |  |  |  |  |  | 0.44 | 1.61 | 0.9 | EC50, CellTiter-Glo (DU-4475 [8]): 2.24 nM; EC50, CellTiter-Glo (HDQ-P1): 6.62 nM; EC50, CellTiter-Glo (HCC1143): 0.91 nM; EC50, CellTiter-Glo (Hs578T): 0.42 nM; EC50, CellTiter-Glo (MDA-MB-453): 1.22 nM
10 | CC(C)C[C@@H](C(=O)N[C@H](C(=O)OC1CCCC1)c1ccccc1)[C@H](O)C(=O)NO [Tosedostat] | 528 | 335 | 93.2 | 81.3 | 182 |  | 327 |  |  |  |  |  |  | 125 | 854 | 127 | EC50, CellTiter-Glo (MDA-MB-231 [3]): 366 nM; EC50, CellTiter-Glo (HDQ-P1): 630 nM; EC50, CellTiter-Glo (HCC1143): 405 nM; EC50, CellTiter-Glo (Hs578T): 8270 nM; EC50, CellTiter-Glo (MDA-MB-453): 55.8 nM
11 | NC(=O)c1ccc(I)c([N+](=O)[O-])c1 [Iniparib] (10000 nM) |  |  |  |  |  |  |  |  | 80 | 90.2 | 79 | 116 | 93.9 |  |  |  | 
12 | CNC(=O)c1ccc(N2C(=S)N(c3ccc(C#N)c(C(F)(F)F)c3)C(=O)C2(C)C)cc1F [Enzalutamide] |  |  |  |  |  |  |  |  |  |  |  |  |  |  | 48.6 |  | EC50, CellTiter-Glo (MDA-MB-453): > 10000 nM
13 | CN(C)CCOc1ccc(/C(=C(/CCCl)c2ccccc2)c2ccccc2)cc1 [Toremifene] | 7340 |  | 3620 | 9750 |  | 1710 |  |  |  |  |  |  |  |  |  |  | 
14 | O=C(Nc1ccncc1)C(=O)c1cn(Cc2ccc(Cl)cc2)c2ccccc12 [Indibulin] (10000 nM) |  |  |  |  |  |  |  |  | 62.5 | 79 | 37 | 43 | 53.8 |  |  |  | 
15 | COc1cc2ncnc(Nc3ccc(F)c(Cl)c3)c2cc1OCCCN1CCOCC1 [Gefitinib] |  |  |  | > 10000 | 714 | 84.2 | 788 |  |  |  |  |  |  |  |  |  | 
16 | CCc1c2c(nc3ccc(OC(=O)N4CCC(N5CCCCC5)CC4)cc13)-c1cc3c(c(=O)n1C2)COC(=O)[C@]3(O)CC [Irinotecan] |  | 1160 | 2550 |  |  | 4290 | 1450 | 1180 |  |  |  |  |  | 9390 | 3290 | 2590 | EC50, CellTiter-Glo (DU-4475 [8]): 1840 nM; EC50, CellTiter-Glo (HCC1599): 6850 nM
17 | COc1cc2/c(=N/c3ccc(Br)cc3F)nc[nH]c2cc1OCC1CCN(C)CC1 [Vandetanib] (1000 nM) |  |  |  |  |  |  |  |  | 64.9 | 87.8 | 69.9 | 58.9 | 79.1 |  |  |  | 
18 | CNC(=O)c1cc(Oc2ccc(NC(=O)Nc3ccc(Cl)c(C(F)(F)F)c3)c(F)c2)ccn1 [Regorafenib] | 1150 | 6380 | 3500 | > 10000 |  | 1880 | 4590 | > 10000 |  |  |  |  |  | 9050 | 216 | 9950 | EC50, CellTiter-Glo (DU-4475 [8]): 2970 nM; EC50, CellTiter-Glo (HCC1599): 8020 nM; EC50, CellTiter-Glo (MDA-MB-231 [3]): 4560 nM; EC50, CellTiter-Glo (HDQ-P1): 5110 nM; EC50, CellTiter-Glo (Hs578T): 2290 nM; EC50, CellTiter-Glo (MDA-MB-453): 2890 nM
19 | COc1cc2/c(=N/c3ccc(Br)cc3F)nc[nH]c2cc1OCC1CCN(C)CC1 [Vandetanib] | 370 | > 1000 | 110 |  |  | 150 |  |  |  |  |  |  |  |  | > 1000 | > 1000 | 

From the supplement of paper PMC4862054
